Results reported in ChEMBL document CHEMBL2203098 (J Med Chem, 2012).
Active and inactive are the calls of the source. The calls are words filed in the database; no cut-off is given here.

How the values were obtained:
Cholinesterase = Cholinesterase (Equus caballus, UniProt P81908)
Acetylcholinesterase = Acetylcholinesterase (Electrophorus electricus, UniProt O42275)
Description: Inhibition of electric eel AChE by colorimetric Ellman assay

HT-22 [1] = assay: Neuroprotective activity against glutamate induced oxidative stress in mouse hippocampal HT22 cells assessed as cell viability at 25 uM after 24 hrs by MTT assay; format: functional, cell-based
Rattus norvegicus [2] = assay: Hepatoprotective activity in Wistar rat assessed as decrease in tissue content of TBARS at 2 uM/100 gram of body weight, ip after 24 hrs; format: functional; parameters: scale not given: the % may be the effect or the level left
HT-22 [3] = assay: Neurotoxicity in mouse hippocampal HT22 cells assessed as cell viability at 10 uM after 24 hrs by MTT assay; format: toxicity, cell-based; details: ht-22, 24 h
HT-22 [4] = assay: Neurotoxicity in mouse hippocampal HT22 cells assessed as cell viability at 25 uM after 24 hrs by MTT assay; format: toxicity, cell-based; details: ht-22, 24 h
HT-22 [5] = assay: Neuroprotective activity against glutamate induced oxidative stress in mouse hippocampal HT22 cells assessed as cell viability at 10 uM after 24 hrs by MTT assay; format: functional, cell-based
HT-22 [6] = assay: Neuroprotective activity against glutamate induced oxidative stress in mouse hippocampal HT22 cells assessed as cell viability at 1 uM after 24 hrs by MTT assay; format: functional, cell-based
[7] = Hepatotoxicity against human HSC cells assessed as mitochondrial swelling at 50 to 75 uM after 24 hrs by fluorescence microscopic analysis; format: toxicity, cell-based
HT-22 [8] = assay: Neurotoxicity in mouse hippocampal HT22 cells assessed as cell viability at 1 uM after 24 hrs by MTT assay; format: toxicity, cell-based; details: ht-22, 24 h
HT-22 [9] = assay: Neuroprotective activity against glutamate induced oxidative stress in mouse hippocampal HT22 cells assessed as cell viability at 50 uM after 24 hrs by MTT assay; format: functional, cell-based
[10] = Hepatotoxicity against human HSC cells assessed as reduction in cell number at 10 to 75 uM after 24 hrs by fluorescence microscopic analysis; format: toxicity, cell-based
[11] = Hepatotoxicity against human HSC cells assessed as reduction in cell number up to 200 uM after 24 hrs using crystal violet staining by photometry; format: toxicity, cell-based
Rattus norvegicus [12] = assay: Hepatoprotective activity against tacrine-induced toxicity in Wistar rat liver assessed as decrease in tissue content of TBARS at 2 uM/100 gram of body weight, ip after 24 hrs; format: functional; parameters: scale not given: the % may be the effect or the level left
[13] = molecular target: Acetylcholinesterase (Electrophorus electricus) (UniProt O42275); assay: Inhibition of electric eel AChE at 100 uM by colorimetric Ellman assay
Rattus norvegicus [14] = assay: Hepatoprotective against tacrine-induced toxicity in Wistar rat liver assessed as increase in ratio of reduced/oxidised glutathione at 6 uM/100 gram of body weight, ip after 24 hrs; format: functional, organism-based
Rattus norvegicus [15] = assay: Hepatoprotective against tacrine-induced toxicity in Wistar rat liver assessed as increase in ratio of reduced/oxidised glutathione at 2 uM/100 gram of body weight, ip after 24 hrs; format: functional, organism-based
[16] = molecular target: Cholinesterase (Equus caballus) (UniProt P81908); assay: Inhibition of […] at 100 uM by colorimetric Ellman assay
Cholinesterase (Equus caballus), sequence (P81908 whole entry): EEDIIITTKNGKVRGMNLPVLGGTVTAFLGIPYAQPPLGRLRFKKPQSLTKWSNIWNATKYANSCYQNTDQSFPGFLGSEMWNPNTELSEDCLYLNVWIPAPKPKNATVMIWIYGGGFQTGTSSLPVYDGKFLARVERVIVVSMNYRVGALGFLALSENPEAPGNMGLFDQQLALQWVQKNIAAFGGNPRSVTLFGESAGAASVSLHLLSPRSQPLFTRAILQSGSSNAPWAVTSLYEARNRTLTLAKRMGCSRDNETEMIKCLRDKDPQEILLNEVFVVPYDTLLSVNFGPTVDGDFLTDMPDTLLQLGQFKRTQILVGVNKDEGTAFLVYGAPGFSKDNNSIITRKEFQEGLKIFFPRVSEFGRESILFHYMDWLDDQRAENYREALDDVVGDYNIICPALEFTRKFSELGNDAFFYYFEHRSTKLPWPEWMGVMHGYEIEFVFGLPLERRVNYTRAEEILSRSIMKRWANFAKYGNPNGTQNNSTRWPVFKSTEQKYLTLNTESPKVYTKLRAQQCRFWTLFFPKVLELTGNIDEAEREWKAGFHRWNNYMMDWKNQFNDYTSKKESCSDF

Cholinesterase, sequence (P81908 whole entry): as above
Acetylcholinesterase, sequence (O42275 whole entry): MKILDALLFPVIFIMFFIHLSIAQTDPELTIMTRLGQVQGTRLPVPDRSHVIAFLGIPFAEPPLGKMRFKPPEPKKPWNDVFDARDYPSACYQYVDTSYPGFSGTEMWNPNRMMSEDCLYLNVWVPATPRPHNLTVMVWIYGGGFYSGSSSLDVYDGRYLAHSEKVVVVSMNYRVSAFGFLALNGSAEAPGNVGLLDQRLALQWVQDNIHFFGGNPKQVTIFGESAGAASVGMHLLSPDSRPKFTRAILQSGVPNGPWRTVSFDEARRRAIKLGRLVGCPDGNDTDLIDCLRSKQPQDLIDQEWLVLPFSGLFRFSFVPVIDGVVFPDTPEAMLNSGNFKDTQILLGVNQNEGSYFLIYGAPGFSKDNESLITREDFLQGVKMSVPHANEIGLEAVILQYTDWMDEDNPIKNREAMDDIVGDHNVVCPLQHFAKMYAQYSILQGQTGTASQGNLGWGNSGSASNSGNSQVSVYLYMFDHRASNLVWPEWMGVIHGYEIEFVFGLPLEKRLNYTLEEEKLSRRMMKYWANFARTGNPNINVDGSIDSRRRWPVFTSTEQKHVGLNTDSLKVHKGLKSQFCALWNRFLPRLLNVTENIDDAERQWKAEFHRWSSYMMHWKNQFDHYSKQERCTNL
Acetylcholinesterase (Electrophorus electricus), sequence (O42275 24-633 limits assumed): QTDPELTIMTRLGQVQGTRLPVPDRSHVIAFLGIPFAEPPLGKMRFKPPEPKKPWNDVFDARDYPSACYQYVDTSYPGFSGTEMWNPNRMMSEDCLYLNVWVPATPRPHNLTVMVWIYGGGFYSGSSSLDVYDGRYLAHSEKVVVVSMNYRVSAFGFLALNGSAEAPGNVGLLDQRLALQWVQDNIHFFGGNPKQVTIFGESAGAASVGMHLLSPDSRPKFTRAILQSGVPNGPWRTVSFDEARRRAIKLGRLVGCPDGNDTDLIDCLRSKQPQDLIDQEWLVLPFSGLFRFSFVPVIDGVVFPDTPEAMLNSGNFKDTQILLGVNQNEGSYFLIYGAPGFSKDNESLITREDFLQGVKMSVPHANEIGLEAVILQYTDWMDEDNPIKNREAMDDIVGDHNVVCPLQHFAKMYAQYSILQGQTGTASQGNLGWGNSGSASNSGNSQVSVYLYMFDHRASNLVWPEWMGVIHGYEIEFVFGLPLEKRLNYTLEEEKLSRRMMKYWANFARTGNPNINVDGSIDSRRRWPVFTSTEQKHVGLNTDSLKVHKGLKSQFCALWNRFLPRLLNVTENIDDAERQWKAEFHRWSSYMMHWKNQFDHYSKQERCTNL

| SMILES | IC50 (Cholinesterase) | IC50 (Acetylcholinesterase) | Activity (HT-22 [1]) | Activity (Rattus norvegicus [2]) | Activity (HT-22 [3]) | Activity (HT-22 [4]) | Activity (HT-22 [5]) | Activity (HT-22 [6]) | Activity [7] | Activity (HT-22 [8]) | Activity (HT-22 [9]) | Activity [10] | Activity [11] | Activity (Rattus norvegicus [12]) | inhibition [13] | Activity (Rattus norvegicus [14]) | Activity (Rattus norvegicus [15]) | inhibition [16] |
| --- | --- | --- | --- | --- | --- | --- | --- | --- | --- | --- | --- | --- | --- | --- | --- | --- | --- | --- |
| O=C(O)CCC(=O)NCCCCCCNc1c2c(nc3ccccc13)CCCC2 | 0.361 µM | 0.102 µM |  |  |  |  |  |  |  |  |  |  |  |  |  |  |  |  |
| COc1cc([C@@H]2Oc3cc([C@H]4Oc5cc(O)cc(O)c5C(=O)[C@@H]4O)ccc3O[C@H]2COC(=O)CCC(=O)NCCCCCCNc2c3c(nc4ccccc24)CCCC3)ccc1O | 0.0497 µM | 0.0539 µM | Active | 25% | Non-toxic | Non-toxic | Active | Active | Non-toxic | Non-toxic | Active | Non-toxic | Non-toxic |  |  |  |  |  |
| COc1cc(C2Oc3cc([C@H]4Oc5cc(O)cc(O)c5C(=O)[C@@H]4O)ccc3OC2CO)ccc1O (stereo partly specified) [SILIBININ] |  |  | inactive |  |  |  | inactive | inactive |  |  | inactive |  |  | 15% | 5.5% | Active | Active | 3.1% |
| NCCCCCCNc1c2c(nc3ccccc13)CCCC2 | 0.002 µM | 0.039 µM |  |  |  |  |  |  |  |  |  |  |  |  |  |  |  |  |
